Experimental findings from patent US12351580B2, “NLRP3 modulators” (Innate Tumor Immunity, Inc., priority 2017, dated 2025) are described below.

Some results are limits rather than exact numbers.

The experiment has as its target T1, TLR7 (Homo sapiens, UniProt Q9NYK1).
T1 construct: host or cells: HEK-Blue cells (human HEK) co-expressing TLR7 and an NF-kB/AP1-inducible SEAP reporter
T1 sequence (Q9NYK1 27-1049): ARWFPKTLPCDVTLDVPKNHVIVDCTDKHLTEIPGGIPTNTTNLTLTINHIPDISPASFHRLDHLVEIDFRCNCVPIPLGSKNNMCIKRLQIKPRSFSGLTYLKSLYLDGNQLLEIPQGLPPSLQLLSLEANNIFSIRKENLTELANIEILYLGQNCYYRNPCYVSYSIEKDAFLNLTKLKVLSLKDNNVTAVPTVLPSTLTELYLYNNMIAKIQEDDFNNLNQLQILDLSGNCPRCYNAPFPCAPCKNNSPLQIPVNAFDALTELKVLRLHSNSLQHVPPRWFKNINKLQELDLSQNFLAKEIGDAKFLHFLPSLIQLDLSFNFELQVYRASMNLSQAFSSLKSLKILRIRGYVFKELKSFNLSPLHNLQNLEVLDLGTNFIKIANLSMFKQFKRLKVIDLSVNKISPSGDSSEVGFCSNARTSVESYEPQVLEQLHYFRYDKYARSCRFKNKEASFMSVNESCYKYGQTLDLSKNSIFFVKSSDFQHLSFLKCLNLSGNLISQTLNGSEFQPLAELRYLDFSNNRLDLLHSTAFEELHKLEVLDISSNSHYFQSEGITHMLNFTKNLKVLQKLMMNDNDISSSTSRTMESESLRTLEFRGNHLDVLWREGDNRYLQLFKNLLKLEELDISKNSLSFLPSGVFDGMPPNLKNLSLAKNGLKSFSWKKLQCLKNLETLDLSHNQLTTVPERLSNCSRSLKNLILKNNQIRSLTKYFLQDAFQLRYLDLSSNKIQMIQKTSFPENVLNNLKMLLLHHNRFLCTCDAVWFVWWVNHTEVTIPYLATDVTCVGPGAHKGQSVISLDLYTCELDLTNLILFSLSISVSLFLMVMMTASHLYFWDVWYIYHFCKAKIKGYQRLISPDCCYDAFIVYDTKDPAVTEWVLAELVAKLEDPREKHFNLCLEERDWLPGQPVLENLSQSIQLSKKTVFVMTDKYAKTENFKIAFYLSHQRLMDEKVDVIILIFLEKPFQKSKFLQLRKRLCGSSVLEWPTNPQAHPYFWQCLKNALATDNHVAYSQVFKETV
The experiment in a line: In vitro human TLR7 binding reporter assay (HEK-Blue, NF-kB/AP1-inducible SEAP). The format is cell-based. As to conditions: activity range symbols. A digest of the protocol: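 Reporter cells are plated at 15,000 per well and rested 24 h. Next day, test compounds or DMSO are dispensed, followed by 18 h incubation at 37 °C, 5% CO2.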
(In general: Reporter assays use an easily measured gene product as a stand-in for the process of interest.)

`CCC(=O)NCc1nc2c(N)nc3cc(-c4cc[nH]n4)ccc3c2[nH]1` [Compound 111]: the EC50 (in general, the concentration at which the effect is half-maximal) is over 100 µM.
`CCN(Cc1nc2c(N)nc3cc(-c4cc[nH]n4)ccc3c2[nH]1)C(=O)c1nccs1` [Compound 114] had a concentration for a half-maximal effect (EC50) of over 100 µM.
The figure for `CN(Cc1nc2c(N)nc3cc(-c4cc[nH]n4)ccc3c2[nH]1)S(C)(=O)=O` [Compound 115] is over 100 µM; for `CC(c1nc2c(N)nc3cc(-n4cccn4)ccc3c2[nH]1)N1CCCC1=O` (stereo not drawn) [Compound 117] it is 20 to 100 µM.
The figure for `CCN(Cc1nc2c(N)nc3cc(-c4cc[nH]n4)ccc3c2[nH]1)C(=O)C1CC1` [Compound 118] is over 100 µM; for `Nc1nc2cc(-c3cccs3)ccc2c2[nH]c(CN3CCCC3=O)nc12` [Compound 309, 1-[(4-amino-7-thiophen-2-yl-1H-imidazo[4,5-c]quinolin-2-yl)methyl]pyrrolidin-2-one] it is over 100 µM; for `N#Cc1ccccc1-c1ccc2c(c1)nc(N)c1nc(CN3CCCC3=O)[nH]c12` [Compound 315, 2-[4-amino-2-[(2-oxopyrrolidin-l-yl)methyl]-1H-imidazo[4,5-c]quinolin-7-yl]benzonitrile] it is over 100 µM.
`Nc1nc2cc(Br)ccc2c2[nH]c(CN3CC(c4ccccc4)CC3=O)nc12` (stereo not drawn) [Compound 316, 1-[(4-amino-7-bromo-1H-imidazo[4,5-c]quinolin-2-yl)methyl]-4-phenylpyrrolidin-2-one] displayed a concentration for a half-maximal effect (EC50) of over 100 µM.
The compound `COc1ncccc1-c1ccc2c(c1)nc(N)c1nc(CN3CCCC3=O)[nH]c12` [Compound 319, 1-[[4-amino-7-(2-methoxypyridin-3-yl)-1H-imidazo[4,5-c]quinolin-2-yl]methyl]pyrrolidin-2-one] had an EC50 of over 100 µM.
Compound `Nc1nc2cc(-c3cccnc3Cl)ccc2c2[nH]c(CN3CCCC3=O)nc12` [Compound 320, 1-[[4-amino-7-(2-chloropyridin-3-yl)-1H-imidazo[4,5-c]quinolin-2-yl]methyl]pyrrolidin-2-one] had an EC50 of over 100 µM.
To `Nc1nc2cc(-c3cnccc3Cl)ccc2c2[nH]c(CN3CCCC3=O)nc12` [Compound 321, 1-[[4-amino-7-(4-chloropyridin-3-yl)-1H-imidazo[4,5-c]quinolin-2-yl]methyl]pyrrolidin-2-one] belongs 20 to 100 µM.
`Nc1nc2cc(-c3ccc(C(F)(F)F)nc3)ccc2c2[nH]c(CN3CCCC3=O)nc12` [Compound 324, 1-[[4-amino-746-(trifluoromethyppyridin-3-yl]-1H-imidazo[4,5-c]quinolin-2-yl]methyl]pyrrolidin-2-one] gave a half-maximal effective concentration (EC50) of over 100 µM.
In turn, `N#Cc1cncc(-c2ccc3c(c2)nc(N)c2nc(CN4CCCC4=O)[nH]c23)c1` [Compound 326, 5-[4-amino-2-[(2-oxopyrrolidin-l-yl)methyl]-1H-imidazo[4,5-c]quinolin-7-yl]pyridine-3-carbonitrile] gave an EC50 of over 100 µM.
The figure for `N#Cc1ccc(-c2ccc3c(c2)nc(N)c2nc(CN4CCCC4=O)[nH]c23)cn1` [Compound 327, 5-[4-amino-2-[(2-oxopyrrolidin-l-yl)methyl]-1H-imidazo[4,5-c]quinolin-7-yl]pyridine-2-carbonitrile] is over 100 µM.
`Nc1nc2cc(-c3cncc(Cl)c3)ccc2c2[nH]c(CN3CCCC3=O)nc12` [Compound 328, 1-[[4-amino-7-(5-chloropyridin-3-yl)-1H-imidazo[4,5-c]quinolin-2-yl]methyl]pyrrolidin-2-one] yielded an EC50 of over 100 µM.
In turn, `Nc1nc2cc(-c3ccc(F)nc3)ccc2c2[nH]c(CN3CCCC3=O)nc12` [Compound 330, 1-[[4-amino-7-(6-fluoropyridin-3-yl)-1H-imidazo[4,5-c]quinolin-2-yl]methyl]pyrrolidin-2-one] returned an EC50 of over 100 µM.
To `Nc1nc2cc(-c3cncc(F)c3)ccc2c2[nH]c(CN3CCCC3=O)nc12` [Compound 331, 1-[[4-amino-7-(5-fluoropyridin-3-yl)-1H-imidazo[4,5-c]quinolin-2-yl]methyl]pyrrolidin-2-one] belongs over 100 µM; to `Nc1nc2cc(C3CCCCCC3)ccc2c2[nH]c(CN3CCCC3=O)nc12` [Compound 332, 1-[(4-amino-7-cycloheptyl-1H-imidazo[4,5-c]quinolin-2-yl)methyl]pyrrolidin-2-one], over 100 µM; to `Nc1nc2cc(-c3cccnc3)ccc2c2[nH]c(CN3CC(c4ccccc4)CC3=O)nc12` (stereo not drawn) [Compound 333, 1-[(4-amino-7-pyridin-3-yl-1H-imidazo[4,5-c]quinolin-2-yl)methyl]-4-phenylpyrrolidin-2-one], over 100 µM.
To `COC(=O)CCCn1c(CN2CCCC2=O)nc2c(N)nc3ccccc3c21` [Compound 335] belongs over 100 µM.
`CN(C)C(=O)CCCn1c(CN2CCCC2=O)nc2c(N)nc3cc(Cl)ccc3c21` [Compound 337] yielded an EC50 of over 100 µM.
On to `CN(C)C(=O)CCCn1c(CN2CCCC2=O)nc2c(N)nc3cc(-c4cccnc4)ccc3c21` [Compound 340], for which the EC50 was over 100 µM.
Take `COC(=O)CCCn1c(CN2CCCC2=O)nc2c(N)nc3cc(Br)ccc3c21` [Compound 341]: the half-maximal effective concentration (EC50) is over 100 µM.
The figure for `COC(=O)CCCn1c(CN2CCCC2=O)nc2c(N)nc3cc(-c4cccnc4)ccc3c21` [Compound 342] is over 100 µM; for `Nc1nc2ccccc2c2[nH]c(CN3CCCCC3=O)nc12` [Compound 346] it is over 100 µM.
`COC(=O)CCCn1c(CN2CCCCC2=O)nc2c(N)nc3ccccc3c21` [Compound 347] returned an EC50 of over 100 µM.
The figure for `CN(C)Cc1nc2c(N)nc3cc(-c4cc[nH]n4)ccc3c2[nH]1` [Compound 348] is over 100 µM; for `CCN(C)Cc1nc2c(N)nc3cc(-c4cc[nH]n4)ccc3c2[nH]1` [Compound 349] it is over 100 µM.
The figure for `Nc1nc2cc(-n3cccn3)ccc2c2[nH]c(CN3C[C@@H](c4ccccc4)CC3=O)nc12` [Compound 357] is over 100 µM.
The compound `Nc1nc2cc(-n3cccn3)ccc2c2[nH]c(CN3C[C@H](c4ccccc4)CC3=O)nc12` [Compound 358] showed an EC50 of over 100 µM.
The figure for `Nc1nc2cc(-c3cc[nH]n3)ccc2c2[nH]c(CN3C(=O)OCC3c3ccccc3)nc12` (stereo not drawn) [Compound 363] is over 100 µM; for `Nc1nc2cc(-c3cc[nH]n3)ccc2c2[nH]c(CN3CCOC3=O)nc12` [Compound 365] it is over 100 µM; for `CN1CCN(Cc2nc3c(N)nc4cc(-c5cc[nH]n5)ccc4c3[nH]2)C1=O` [Compound 368] it is over 100 µM.
Turning to `CN(Cc1nc2c(N)nc3cc(-c4cc[nH]n4)ccc3c2[nH]1)C(=O)CO` [Compound 370], the concentration for a half-maximal effect (EC50) is over 100 µM.
The figure for `CN(Cc1nc2c(N)nc3cc(-c4cc[nH]n4)ccc3c2[nH]1)C(=O)CN` [Compound 372] is over 100 µM.
Compound `CN(C)C(=O)N(C)Cc1nc2c(N)nc3cc(-c4cc[nH]n4)ccc3c2[nH]1` [Compound 375] returned an EC50 of over 100 µM.
`CN(Cc1nc2c(N)nc3cc(-c4cc[nH]n4)ccc3c2[nH]1)C(=O)c1ccccc1` [Compound 376] yielded an EC50 of over 100 µM.
With `CN(Cc1nc2c(N)nc3cc(-c4cc[nH]n4)ccc3c2[nH]1)C(=O)c1nccs1` [Compound 377], the EC50 was over 100 µM.
The figure for `CCN(C=O)Cc1nc2c(N)nc3cc(-c4cc[nH]n4)ccc3c2[nH]1` [Compound 379] is over 100 µM.
`CCN(Cc1nc2c(N)nc3cc(-c4cc[nH]n4)ccc3c2[nH]1)C(=O)CN(C)C` [Compound 383] returned an EC50 of over 100 µM.
The figure for `CCN(Cc1nc2c(N)nc3cc(-c4ccn(C)n4)ccc3c2[nH]1)C(=O)OC(C)(C)C` [Compound 393] is over 100 µM; for `CCN(Cc1nc2c(N)nc3cc(-c4ccsc4)ccc3c2[nH]1)C(=O)OC(C)(C)C` [Compound 397] it is over 100 µM; for `CCNCc1nc2c(N)nc3cc(-n4cccn4)ccc3c2[nH]1` [Compound 398] it is over 100 µM.
To `CCNCc1nc2c(N)nc3cc(-c4cccs4)ccc3c2[nH]1` [Compound 399] belongs over 100 µM; to `CCNCc1nc2c(N)nc3cc(-c4ccsc4)ccc3c2[nH]1` [Compound 400], over 100 µM; to `CNCc1nc2c(N)nc3cc(-c4cc[nH]n4)ccc3c2[nH]1` [Compound 401], over 100 µM.
To `CNCc1nc2c(N)nc3cc(-n4cccn4)ccc3c2[nH]1` [Compound 402] belongs over 100 µM.
Consider `COc1ccc(Cn2c(CN3CCN(C)C3=O)nc3c(N)nc4cc(-c5cc[nH]n5)ccc4c32)cc1` [Compound 403], for which the EC50 was over 100 µM.
